Laboratory results: ChEMBL document CHEMBL5214978, “Identification of 1,4-Benzodiazepine-2,5-dione Derivatives as Potential Protein Synthesis Inhibitors with Highly Potent Anticancer Activity” (J Med Chem, 2022)
pEC50, pIC50: −log10 of the molar value.

Experiments:
[1] = test system: Panel NCI-60 (60 carcinoma cell lines); experiment: Anticancer activity against human Panel NCI-60 (60 carcinoma cell lines) cells assessed as cell growth inhibition; format: functional
A498 = experiment: Anticancer activity against human A498 cells assessed as cell growth inhibition; format: functional, cell-based
MCF7 = experiment: Anticancer activity against human MCF7 cells assessed as cell growth inhibition
MDA-MB-231 = experiment: Anticancer activity against human MDA-MB-231 cells assessed as cell growth inhibition
NCI-H661 = experiment: Anticancer activity against human NCI-H661 cells assessed as cell growth inhibition; format: functional, cell-based
[2] = biological target: T1, Nuclear receptor subfamily 6 group A member 1 (Homo sapiens, UniProt Q15406); experiment: Antagonist activity at GCNF (unknown origin) by luciferase reporter gene assay
T1 sequence (Q15406 whole entry): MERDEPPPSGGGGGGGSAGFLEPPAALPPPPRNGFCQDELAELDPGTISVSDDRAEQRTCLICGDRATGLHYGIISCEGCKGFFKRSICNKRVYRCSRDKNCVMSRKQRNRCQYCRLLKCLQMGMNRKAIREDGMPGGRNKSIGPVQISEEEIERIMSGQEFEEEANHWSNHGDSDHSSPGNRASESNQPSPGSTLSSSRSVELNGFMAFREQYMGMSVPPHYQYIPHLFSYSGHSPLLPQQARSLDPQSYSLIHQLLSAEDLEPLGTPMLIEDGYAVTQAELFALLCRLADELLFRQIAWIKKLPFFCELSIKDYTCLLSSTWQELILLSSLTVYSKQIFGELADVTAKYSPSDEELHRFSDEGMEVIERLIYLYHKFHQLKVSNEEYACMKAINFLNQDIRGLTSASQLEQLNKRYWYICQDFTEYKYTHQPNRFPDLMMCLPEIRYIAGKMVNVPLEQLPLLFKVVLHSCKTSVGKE

SF-295 = experiment: Anticancer activity against human SF-295 cells assessed as cell growth inhibition measured after 48 hrs by SRB assay; format: functional
786-0 = experiment: Anticancer activity against human 786-0 cells assessed as cell growth inhibition measured after 48 hrs by SRB assay; format: functional
HCT-116 = experiment: Anticancer activity against human HCT-116 cells assessed as cell growth inhibition measured after 48 hrs by SRB assay; format: functional
A549 = experiment: Anticancer activity against human A549 cells assessed as cell growth inhibition measured after 48 hrs by SRB assay; format: functional
LOX IMVI = experiment: Anticancer activity against human LOX IMVI cells assessed as cell growth inhibition measured after 48 hrs by SRB assay; format: functional
[3] = test system: Panel NCI-60 (60 carcinoma cell lines); experiment: Anticancer activity against human Panel NCI-60 (60 carcinoma cell lines) line assessed as cell growth inhibition measured after 48 hrs by SRB assay; format: functional

Structure (SMILES) | GI50 [1] | GI50 (A498) | pIC50 (MCF7) | pIC50 (MDA-MB-231) | pIC50 (NCI-H661) | pEC50 [2] | pIC50 (A498) | GI50 (SF-295) | GI50 (786-0) | GI50 (HCT-116) | GI50 (A549) | GI50 (LOX IMVI) | GI50 [3]
O=C1Nc2ccccc2C(=O)N2C=C(c3ccc(Br)cc3)C[C@@H]12 | 7.41 µM | 0.51 µM | – | – | – | – | – | – | – | – | – | – | –
C[C@H](c1ccc(Cl)cc1)N1C(=O)c2cc(I)ccc2N(CCCCC(=O)O)C(=O)[C@@H]1c1ccc(Cl)cc1 | – | – | 5.15 | 4.17 | – | – | – | – | – | – | – | – | –
O=C(CCCCCN1C(=O)c2ccccc2N(Cc2ccccc2)C(=O)[C@@H]1Cc1ccccc1)NO | – | – | – | – | 5.22 | – | – | – | – | – | – | – | –
O=C1Nc2ccc(Br)cc2C(=O)N(Cc2ccccc2Sc2ccc(Cl)cc2)[C@@H]1Cc1ccccc1 | – | – | – | – | – | > 5.15 | 5.30 | – | – | – | – | – | –
COC(=O)C[C@@H]1NC(=O)c2cc(OCCN3CCOCC3)c(NC(=O)c3cc(OC)c(OC)c(OC)c3)cc2NC1=O | – | – | – | – | – | – | – | > 50 µM | > 50 µM | > 50 µM | > 50 µM | > 50 µM | > 50 µM
COC(=O)C[C@@H]1NC(=O)c2cc(Oc3cc(Cl)cc(Cl)c3)c(NC(=O)c3cc(OC)c(OC)c(OC)c3)cc2NC1=O | – | – | – | – | – | – | – | > 50 µM | > 50 µM | > 50 µM | > 50 µM | > 50 µM | > 50 µM
COC(=O)C[C@@H]1NC(=O)c2cc(OCCCc3cc(C)cc(C)c3)c(NC(=O)c3cc(OC)c(OC)c(OC)c3)cc2NC1=O | – | – | – | – | – | – | – | > 50 µM | > 50 µM | > 50 µM | > 50 µM | > 50 µM | > 50 µM
COC(=O)C[C@@H]1NC(=O)c2cc(Oc3cc(C)cc(C)c3)c(NC(=O)c3ccco3)cc2NC1=O | – | – | – | – | – | – | – | > 50 µM | > 50 µM | > 50 µM | > 50 µM | > 50 µM | > 50 µM
CCN(CC)C(=O)C[C@@H]1NC(=O)c2cc(Oc3cc(C)cc(C)c3)c(NC(=O)c3cc(OC)c(OC)c(OC)c3)cc2N(C)C1=O | – | – | – | – | – | – | – | > 50 µM | > 50 µM | > 50 µM | > 50 µM | > 50 µM | > 50 µM
COC(=O)C[C@@H]1NC(=O)c2cc(OCCc3cc(C)cc(C)c3)c(NC(=O)c3cc(OC)c(OC)c(OC)c3)cc2NC1=O | – | – | – | – | – | – | – | 1.61 µM | 7.45 µM | 4.01 µM | 2.09 µM | 5.15 µM | 3.02 µM
COC(=O)CC[C@@H]1NC(=O)c2cc(Oc3cc(C)cc(C)c3)c(NC(=O)c3cc(OC)c(OC)c(OC)c3)cc2NC1=O | – | – | – | – | – | – | – | 1.1 µM | 1.86 µM | 2.08 µM | 1.26 µM | 1.92 µM | 1.2 µM
COc1cc(C(=O)Nc2cc3c(cc2Oc2cc(C)cc(C)c2)C(=O)N[C@@H](CC(N)=O)C(=O)N3)cc(OC)c1OC | – | – | – | – | – | – | – | 2.01 µM | 3.45 µM | 0.79 µM | 3.97 µM | 0.35 µM | 1.12 µM
COC(=O)C[C@@H]1NC(=O)c2cc(Oc3cc(C)cc(C)c3)c(NC(=O)c3cc(OC)c(OC)c(OC)c3)cc2NC1=O | – | – | – | – | – | – | – | 0.07 µM | 0.07 µM | 0.03 µM | 0.07 µM | 0.02 µM | 0.05 µM
COC(=O)C[C@@H]1NC(=O)c2cc(-c3cc(C)cc(C)c3)c(NC(=O)c3cc(OC)c(OC)c(OC)c3)cc2NC1=O | – | – | – | – | – | – | – | > 50 µM | > 50 µM | > 50 µM | > 50 µM | > 50 µM | > 50 µM
CCc1noc(C[C@@H]2NC(=O)c3cc(Oc4cc(C)cc(C)c4)c(NC(=O)c4cc(OC)c(OC)c(OC)c4)cc3NC2=O)n1 | – | – | – | – | – | – | – | 0.11 µM | 0.72 µM | 0.26 µM | 0.14 µM | 0.13 µM | 0.27 µM
CCN(CC)C(=O)C[C@@H]1NC(=O)c2cc(Oc3cc(C)cc(C)c3)c(N(C)C(=O)c3cc(OC)c(OC)c(OC)c3)cc2NC1=O | – | – | – | – | – | – | – | > 50 µM | > 50 µM | 50 µM | > 50 µM | > 50 µM | > 50 µM
CCN(CC)C(=O)C[C@H]1C(=O)Nc2cc(NC(=O)c3cc(OC)c(OC)c(OC)c3)c(Oc3cc(C)cc(C)c3)cc2C(=O)N1CC | – | – | – | – | – | – | – | 0.118 µM | 0.158 µM | 0.145 µM | 0.148 µM | 0.134 µM | 0.069 µM
